What was measured:
Format in all cases: biochemical
AiGDS = target: T1, AiGDS (Azadirachta indica, UniProt A0A088CND2); experiment: GC-MS of geraniol after alkaline phosphatase; conditions: HEPES buffer, 30 °C, 2 h
T1 construct: E. coli; solubilised from inclusion bodies by pH 11 to 7 shift; Ni-NTA; homomeric type; mitochondrial targeting predicted
T1 sequence (A0A088CND2 1-420): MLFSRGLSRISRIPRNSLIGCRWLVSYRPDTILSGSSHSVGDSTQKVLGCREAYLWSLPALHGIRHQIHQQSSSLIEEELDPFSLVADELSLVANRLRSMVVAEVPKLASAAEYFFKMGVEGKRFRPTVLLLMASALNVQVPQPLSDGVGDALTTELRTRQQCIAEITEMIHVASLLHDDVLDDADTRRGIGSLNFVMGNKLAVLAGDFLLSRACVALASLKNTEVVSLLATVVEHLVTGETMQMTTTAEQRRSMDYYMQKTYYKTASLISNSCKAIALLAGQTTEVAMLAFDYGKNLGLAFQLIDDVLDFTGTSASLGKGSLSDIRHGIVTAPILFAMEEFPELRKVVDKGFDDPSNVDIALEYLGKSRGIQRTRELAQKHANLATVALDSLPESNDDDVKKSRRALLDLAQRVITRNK

AiFDS = target: T2, AiFDS (Azadirachta indica, UniProt A0A088CNE3); experiment: GC-MS of (E,E)-farnesol after alkaline phosphatase; conditions: HEPES buffer, 30 °C, 2 h
T2 construct: E. coli BL21(DE3); Ni-NTA
T2 sequence (A0A088CNE3 1-342): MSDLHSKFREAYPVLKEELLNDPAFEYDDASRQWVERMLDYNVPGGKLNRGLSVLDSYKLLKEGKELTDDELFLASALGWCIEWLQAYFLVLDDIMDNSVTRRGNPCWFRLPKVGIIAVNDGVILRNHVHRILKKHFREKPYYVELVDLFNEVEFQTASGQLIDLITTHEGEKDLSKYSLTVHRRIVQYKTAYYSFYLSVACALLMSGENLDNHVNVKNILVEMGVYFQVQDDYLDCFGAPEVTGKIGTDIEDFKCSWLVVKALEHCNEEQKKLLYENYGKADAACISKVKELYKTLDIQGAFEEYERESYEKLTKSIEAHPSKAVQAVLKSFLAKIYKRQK

full length AiSQS = target: T3, full length AiSQS (Azadirachta indica, UniProt I1Z8B6); experiment: GC-MS of squalene; conditions: 100 μM FPP, 1 mM NADPH; 30 °C, 2 h
T3 construct: gene SQS1; full-length, printed as 396 residues from 1176 bp ORF (these disagree), 44 kDa; pRSET-C, His6 tag; E. coli BL21 Star(DE3); glycerol/CHAPS, Ni-NTA

truncated AiSQS = target: T4, truncated AiSQS (Azadirachta indica, UniProt I1Z8B6); experiment: GC-MS of squalene; conditions: 100 μM FPP, 1 mM NADPH; 30 °C, 2 h
T4 construct: gene SQS1; truncated: 15 N-terminal and 63 C-terminal residues deleted (end border uncertain, printed 396 residues and 1176 bp ORF disagree); pET28c, His6 tag; E. coli BL21(DE3); Ni-NTA; ~35 kDa
T4 sequence (I1Z8B6 entry or part of it): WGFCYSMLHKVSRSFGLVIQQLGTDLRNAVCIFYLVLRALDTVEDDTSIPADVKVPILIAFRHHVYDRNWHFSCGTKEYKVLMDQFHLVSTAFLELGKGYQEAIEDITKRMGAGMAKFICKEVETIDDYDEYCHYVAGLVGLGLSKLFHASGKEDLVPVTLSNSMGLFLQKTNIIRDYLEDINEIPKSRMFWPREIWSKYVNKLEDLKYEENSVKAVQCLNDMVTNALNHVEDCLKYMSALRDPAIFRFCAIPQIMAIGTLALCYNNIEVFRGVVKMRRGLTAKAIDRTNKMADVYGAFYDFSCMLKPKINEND

T3 sequence (I1Z8B6 entry or part of it): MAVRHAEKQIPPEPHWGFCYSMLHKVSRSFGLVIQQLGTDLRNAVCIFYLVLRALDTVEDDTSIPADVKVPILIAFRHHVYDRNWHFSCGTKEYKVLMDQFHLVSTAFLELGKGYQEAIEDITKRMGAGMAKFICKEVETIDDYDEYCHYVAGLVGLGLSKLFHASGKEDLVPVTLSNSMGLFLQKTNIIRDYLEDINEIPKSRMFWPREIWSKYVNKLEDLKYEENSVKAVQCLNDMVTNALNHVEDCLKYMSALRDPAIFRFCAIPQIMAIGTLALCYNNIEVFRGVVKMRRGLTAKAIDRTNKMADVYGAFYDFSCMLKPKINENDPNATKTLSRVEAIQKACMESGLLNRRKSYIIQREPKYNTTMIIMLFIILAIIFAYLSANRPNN

C=C(C)CCOP(=O)(O)OP(=O)(O)O [IPP]
GC-MS of geraniol after alkaline phosphatase (AiGDS; with DMAPP, IPP 100-200 μM): Purified recombinant AiGDS was incubated with equimolar concentration of IPP and DMAPP
GC-MS of (E,E)-farnesol after alkaline phosphatase (AiFDS; with DMAPP or GPP, IPP 100-200 μM): purified short-chain prenyltransferase was incubated with DMAPP/GPP and IPP followed by treatment with alkaline phosphatase

CC(C)=CCC/C(C)=C/COP(=O)(O)OP(=O)(O)O [GPP]
GC-MS of (E,E)-farnesol after alkaline phosphatase (AiFDS; with IPP, GPP 100 μM): purified short-chain prenyltransferase was incubated with DMAPP/GPP and IPP followed by treatment with alkaline phosphatase

CC(C)=CCOP(=O)(O)OP(=O)(O)O [DMAPP]
GC-MS of geraniol after alkaline phosphatase (AiGDS; with IPP, DMAPP 100 μM): Purified recombinant AiGDS was incubated with equimolar concentration of IPP and DMAPP

NC(=O)C1=CN([C@@H]2O[C@H](COP(=O)(O)OP(=O)(O)OC[C@H]3O[C@@H](n4cnc5c(N)ncnc54)[C@H](OP(=O)(O)O)[C@@H]3O)[C@@H](O)[C@H]2O)C=CC1 [NADPH]
GC-MS of squalene (full length AiSQS): full length and truncated AiSQS with FPP in the presence of NADPH
GC-MS of squalene (truncated AiSQS): full length and truncated AiSQS with FPP in the presence of NADPH

CC(C)=CCC/C(C)=C/CC/C(C)=C/COP(=O)(O)OP(=O)(O)O [FPP]
GC-MS of squalene (full length AiSQS): full length and truncated AiSQS with FPP in the presence of NADPH
GC-MS of squalene (truncated AiSQS): full length and truncated AiSQS with FPP in the presence of NADPH
